This is an account of results in patent EP3331365B1, “AGENT FOR FIGHTING FISH PARASITES” (Pharmaq AS, priority 2015, dated 2017).

Format in all cases: in vivo
One data set has as its system sea lice (L. salmonis). Kind of data set: Bath treatment of sea lice infested Atlantic salmon: count of attached female sea lice. The note with it: 2ppm for 60 minutes by bath; 12°C seawater; counted three days after treatment. On the procedure:
Diafenthiuron was tested for use in treating fish parasites.
Atlantic salmon were acclimatized to 12°C seawater.
Three days after treatment the number of attached female sea lice was counted. The number of adult female sea lice was reduced by 56% in the treated group.

In data set [1] the test system is tilapia (Oreochromis niloticus). Nature of the data set: Toxicity to fish, intraperitoneal injection. On the procedure: . Tilapia of mean weight of 158 grams reared in freshwater at 29°C were distributed in three groups of 10 fish. Each group was injected with 0.05 ml of the relevant formulation, or PBS control.
The next data set concerns Lepeophtheirus salmonis. Kind of data set: Lesa assay: bioassay on salmon lice, 1 hour exposure in seawater. As to conditions: monitored until 96 hours post exposure, 8-10 °C. On the procedure: The stock was then diluted in saltwater to the appropriate concentration.
Control formulations were also prepared comprising only solvent (acetone) and solubilizer (Kolliphor EL) in the same ratio as the test formulation. A salt water control was also used.
Bioassay experiments were then conducted on copepodites and pre-adult/adult salmon lice (Lepeophtheirus salmonis).
After 1 hour exposure, the lice were transferred to modified 6 well plates and washed twice in saltwater. The plates were then incubated and the numbers of dead and surviving lice were monitored until 96 hours post exposure. The experimental temperature was maintained at 8-10 °C.

In the case of `CC(C)c1cc(Oc2ccccc2)cc(C(C)C)c1NC(=S)NC(C)(C)C` [Diafenthiuron, 1-tert-butyl-3-(2,6-diisopropyl-4-phenoxyphenyl)thiourea], in the data set on sea lice (L. salmonis), the “reduction of the number of adult female sea lice” value is on record as 56%. Also, in data set [1] (0.05 ml of 25 mg/ml in PEG400 (85%)/DMSO (15%), intraperitoneal injection, 5 days, same mortality in group without diafenthiuron), the “% mortality” value is recorded as 10%. The “No. of fish healthy after 5 days” value in data set [1] (0.05 ml of 25 mg/ml in PEG400 (85%)/DMSO (15%), intraperitoneal injection, freshwater 29°C, 10 fish) is recorded as 9/10. Besides, the “treated fish alive and healthy” value in data set [1] (five days after treatment, 25 mg/ml in PEG400/DMSO, 0.05 ml intraperitoneal injection) is listed as 90%. For the same molecule, the “% dead” value with Lepeophtheirus salmonis (Copepodites, 0.5 ppm) is reported as 77%; in the data set on Lepeophtheirus salmonis (Copepodites, 2.0 ppm), 100%; with Lepeophtheirus salmonis (Copepodites, 20 ppb), 48%; in the data set with Lepeophtheirus salmonis (Pre-adult/adult, 2.0 ppm) it was 100%. For the same molecule, the Dead/total in the data set on Lepeophtheirus salmonis (Copepodites, 0.5 ppm) is 10/13; with Lepeophtheirus salmonis (Copepodites, 2.0 ppm), 20/20; in the data set with Lepeophtheirus salmonis (Copepodites, 20 ppb), 11/23; in the data set on Lepeophtheirus salmonis (Pre-adult/adult, 2.0 ppm), 5/5.
